# From article PMC5095863 (Chembiochem, 2016)
# Key:
# Type in all cases: biochemical
# SIRT6 [1] = target: T1, SIRT6 (Homo sapiens, UniProt Q8N6T7); assay: Fluorescence enhancement due to enzymatic reaction of SFP1-3 with SIRT6; settings: 5 mM NAM, 48 nM SIRT6, 500 μM NAD, 37 °C
# SIRT1 = target: T2, SIRT1 (Homo sapiens, UniProt Q96EB6); assay: Evaluation of SIRT inhibitors and activators with SFP3, SIRT1; settings: hydrolysis of 2.5 μM SFP3, 7 nM SIRT1, 500 μM NAD+, 37 °C, 60 min
# T2 sequence (Q96EB6 1-747): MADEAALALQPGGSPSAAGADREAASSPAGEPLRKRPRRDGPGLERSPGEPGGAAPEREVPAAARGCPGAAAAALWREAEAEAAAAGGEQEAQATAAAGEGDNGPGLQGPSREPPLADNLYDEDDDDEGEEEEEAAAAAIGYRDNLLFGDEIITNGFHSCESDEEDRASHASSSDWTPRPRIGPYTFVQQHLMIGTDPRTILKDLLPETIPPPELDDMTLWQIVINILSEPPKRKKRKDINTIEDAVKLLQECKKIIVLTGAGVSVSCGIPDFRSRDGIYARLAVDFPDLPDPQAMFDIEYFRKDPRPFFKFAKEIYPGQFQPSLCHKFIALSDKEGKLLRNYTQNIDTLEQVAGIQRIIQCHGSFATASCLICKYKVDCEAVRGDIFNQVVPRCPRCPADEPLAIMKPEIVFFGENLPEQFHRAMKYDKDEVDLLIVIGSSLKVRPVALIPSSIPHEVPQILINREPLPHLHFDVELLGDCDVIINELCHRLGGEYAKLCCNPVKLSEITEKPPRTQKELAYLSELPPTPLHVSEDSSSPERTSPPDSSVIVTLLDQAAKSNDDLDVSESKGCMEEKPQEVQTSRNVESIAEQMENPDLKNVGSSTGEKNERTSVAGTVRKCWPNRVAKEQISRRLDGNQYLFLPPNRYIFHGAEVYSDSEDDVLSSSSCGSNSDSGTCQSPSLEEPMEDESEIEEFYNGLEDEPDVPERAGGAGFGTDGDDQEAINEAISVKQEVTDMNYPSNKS
# SIRT6 [2] = target: T1, SIRT6; assay: Evaluation of SIRT inhibitors and activators with SFP3, SIRT6
# T1 sequence (Q8N6T7 whole entry): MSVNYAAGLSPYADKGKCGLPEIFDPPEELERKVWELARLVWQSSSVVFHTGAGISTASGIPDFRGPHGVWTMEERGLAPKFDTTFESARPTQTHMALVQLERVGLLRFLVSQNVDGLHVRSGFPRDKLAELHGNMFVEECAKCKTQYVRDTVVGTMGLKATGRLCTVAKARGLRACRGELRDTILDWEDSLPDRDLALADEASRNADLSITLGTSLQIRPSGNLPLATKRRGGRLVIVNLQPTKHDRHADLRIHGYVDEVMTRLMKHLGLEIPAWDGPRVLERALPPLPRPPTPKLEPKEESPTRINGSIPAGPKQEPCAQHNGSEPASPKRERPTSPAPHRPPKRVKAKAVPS
SMILES,effect on SIRT6-dependent fluorescence increments of SFP2 and SFP3 (SIRT6 [1]),effect on SIRT1 activity (SIRT1),"effect on SIRT6 activity (SIRT6 [2]; hydrolysis of 2.5 μM SFP3, 48 nM SIRT6, 500 μM NAD+, 37 °C, 60 min)",IC50 (SIRT6 [2])
"NC(=O)c1cccnc1 [NAM, nicotinamide]",suppressed,,,
"O=c1c(O)c(-c2ccc(O)c(O)c2)oc2cc(O)cc(O)c12 [Quercetin, quercetin]",,"inhibition at lower concentration, but activation at higher concentration","inhibition at lower concentration, but activation at higher concentration",
"Oc1ccc(/C=C/c2cc(O)cc(O)c2)cc1 [Resveratrol, resveratrol]",,did not affect,,~190 µM
